Test system: male white mice
Assay: Hypnosis effect taking orally (lost righting reflex half minute)
Type: in vivo
Settings: for The sleep animals: 30 mg/kg, n=25
Method: The male white mice (weighing 18-22 g) were divided into groups at random. Every group had twenty five. Experimental group douched the stomach with the compound by 0.08, 0.3, 0.4 ml/10 g, pentobabital sodium 30 mg/kg, the control group gave the same volumn saline. Then put them into the constant temperature infant cabinet at 37° C. We observed the mumber of the mice sleep. The standard was the half minute continous lost righting reflexs (table 3 was the result). […] The compound wares had hypnosis effect.

Question: What does the source list for `CCCC(C)C1(CC)C(=O)N=C([O-])NC1=O.[Na+]` (centres unmarked) [Pentobabital sodium]?
Answer: The sleep animals (5′): 20TT; The sleep animals (30′): 25TT; The sleep animals (60′): 21TT; The sleep animals (90′): 13; Hypnosis effect (in words) (30 ml/kg as printed in text, mice): let them all sleep
